Experimental data published in US4806532A, “Inhibition of epithelial phosphate transport” (Mayo Foundation for Medical Education and Research, priority 1985, dated 1989).
Where a name gives a salt, the structure may show the parent alone.

Columns and labels:
[1] = tested on: L-[^3 H]-proline uptake by BBMV; assay: Na+-gradient-dependent uptake of L-[3H]-proline by renal BBMV; format: biochemical, rat; settings: 1 mM TPFA; mean ± SEM, n=4; control 43±3
Protocol: The brush border membrane vesicles (BBMV) were prepared from renal cortical tissue of adult male Sprague-Dawley rats of an average body weight of about 220 grams. Rats were fed ad libitum standard rat chow containing 0.7% Pi and had free access to distilled water. Rats were sacrificed under anesthesia and dissected renal cortical tissue was used for preparation of BBMV fraction by the divalent cation-precipitation procedure, employed and described in detail in J. Clin. Invest., 67, 1347 (1981) and J. Biol. Chem., 258, 5695 (1983), with the following modifications: (a) MgCl2 instead of CaCl2 was added to crude homogenate (final concentration 10 mM MgCl2) to precipitate membranes other than BBMV; (b) in the final step, BBMV were washed and equilibrated in a medium of pH=7.5, instead of pH=8.5. The enrichment and specific activities of typical BBM enzymes alkaline phosphatase (APases), γ-glutyamyl transferase (γ-GTT), leucineaminopeptidase (LAP) and maltase with use of these modifications were similar as in BBMV fractions prepared in our previous studies. […]
The BBMV uptake of ^32 Pi, D-[^3 H]-glucose, L-[^3 H]-proline and ^22 Na^+ was measured by means of a rapid filtration technique, as described in J. Clin. Invest., 67, 1347 (1981) and Am. […]

BBM enzymes APase = molecular target: T1, BBM enzymes APase (Rattus norvegicus, UniProt P08289); assay: Effect on BBM enzyme APase (data not shown); format: biochemical
T1 construct: from tissue; host or cells: renal brush border membrane vesicles (rat inferred)
T1 sequence (P08289 18-502 limits assumed): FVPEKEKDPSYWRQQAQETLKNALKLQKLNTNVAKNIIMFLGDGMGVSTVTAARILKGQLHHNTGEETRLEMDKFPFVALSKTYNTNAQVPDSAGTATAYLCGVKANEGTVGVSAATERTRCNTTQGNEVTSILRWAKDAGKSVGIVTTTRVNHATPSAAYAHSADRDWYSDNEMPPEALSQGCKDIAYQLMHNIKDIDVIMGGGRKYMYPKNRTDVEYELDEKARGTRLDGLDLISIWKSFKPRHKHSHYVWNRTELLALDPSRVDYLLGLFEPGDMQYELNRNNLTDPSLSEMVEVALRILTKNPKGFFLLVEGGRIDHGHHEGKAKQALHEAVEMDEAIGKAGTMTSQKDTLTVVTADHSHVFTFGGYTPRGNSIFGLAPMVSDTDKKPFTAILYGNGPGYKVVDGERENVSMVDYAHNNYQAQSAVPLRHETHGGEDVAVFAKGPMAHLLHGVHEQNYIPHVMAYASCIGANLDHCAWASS

[2] = in vivo; cited from earlier work

**Q.** With `O=C(O)P(=O)(O)O` [TPFA, Phosphonoformic acid, trisodium salt hexahydrate] as the molecule, how does the “equilibrium uptake of L-[3H]-proline at 120 minutes” value [1] read?
**A.** 43+1 pmoles/mg protein

**Q.** What about the “effect on BBM enzyme APase” value (BBM enzymes APase) of the same molecule?
**A.** without inhibitory effect

**Q.** What about the “toxic effects on bone in general toxicity studies” value [2] of the same molecule?
**A.** not toxic effects on bone
